# Entries after “also recorded” stand apart in the source; their conditions may differ.
# System: R. flavipes worker termites
# Assay: No-choice Petri dish in vivo feeding bioassay (feeding and mortality, 24 days)
# Settings: for Normalized Avg. Totals: relative to control [0] average; for maximum mortality: after 24 days
# Experimental: R. flavipes colonies were collected from the University of Florida campus during spring and summer 2006. Colonies were maintained in sealed plastic boxes (30×24×10 cm) at 22±1° C. and 69±1% RH. Colonies were maintained without soil and provisioned with moist brown paper towels and wood shims. Colonies that were acclimated under the above conditions for <2 months are referred to as “field colonies”, while those held for >6 months are referred to as “lab colonies”. Unless otherwise stated, all studies reported here were run with lab colonies.
# Two different termite colonies were used. A lab colony was used in bioassays that tested the effects of CBI and FMG; this was the same colony used in cellulase optimization studies, cellulase distribution studies, and for […] determination. The other colony was a field colony, which was used to repeat the FMG assay along side FMCB. The no-choice feeding bioassay was derived from a previously-developed and slightly modified caste differentiation assay reported by M. E. Scharf, et al. in “Caste differentiation responses of two sympatric Reticulitermes termite species to juvenile hormone homologs and synthetic juvenoids in two laboratory assays.” Insectes Soc. […] Acad. Sci. USA, 103 (2006) 4499-504.
# Prior to treatment, paper disks 30 were weighed. Treatments and controls were held in complete darkness at approximately 26±1° C. and 69±1% RH. The inhibitor concentrations tested were 75, 50, 25, 10, 5, 1, 0.5, and 0.1 mM (approximately […] wt/wt). For each inhibitor, paper disks were treated with 50 μl of a given concentration. Control disks received 50 μl methanol alone. Treated papers were allowed to dry in a fume hood for 30 min before placing in dishes, wetting with 25 μl water, and adding 15 termites.
# Termite feeding on the filter papers was readily observable and quantifiable from the bioassays. Average feeding through the entire bioassay was summed within each replicate and calculated as a percentage of feeding relative to untreated controls, then averaged across replicates.
# The experimental design consisted of three replicate dishes per concentration. All assays were carried out for a total of 24 days. Termite mortality and filter paper moisture were monitored every 4th day. Every 8th day, old paper disks were replaced with new ones. These new filter paper disks were treated with identical inhibitor concentrations. The removed filter paper disks 30, showing the results of termite feeding (FIG. 6), were dried and re-weighed. At the end of each assay, data were summarized as cumulative feeding per live termite and cumulative termite mortality. Data were analyzed by non-parametric t-tests (p<0.05) with commercially-available software for use in statistical analysis, designed by SAS Institute, Cary, N.C.
# FIGS. 7A-7F provide graphic data on in vivo feeding bioassays conducted with the carbohydrate-based cellulase inhibitors to assess the impact on termite feeding and survivorship. Feeding results are expressed as the cumulative percent of untreated controls through 24 days. Mortality results are expressed as percent mortality after 24 days. […] Error bars represent standard error of the mean.
# [1] = 0.1 mM test conc., 1st ROUND (lab colony)
# [2] = 0.1 mM test conc., 2nd ROUND (field colony)
# [3] = 0.5 mM test conc., 1st ROUND (lab colony)
# [4] = 0.5 mM test conc., 2nd ROUND (field colony)
# [5] = 1 mM test conc., 1st ROUND (lab colony)
# [6] = 1 mM test conc., 2nd ROUND (field colony)
# [7] = 5 mM test conc., 1st ROUND (lab colony)
# [8] = 5 mM test conc., 2nd ROUND (field colony)
# [9] = 10 mM test conc., 1st ROUND (lab colony)
# [10] = 10 mM test conc., 2nd ROUND (field colony)
# [11] = 25 mM test conc., 1st ROUND (lab colony)
# [12] = 25 mM test conc., 2nd ROUND (field colony)
# [13] = 50 mM test conc., 1st ROUND (lab colony)
# [14] = 50 mM test conc., 2nd ROUND (field colony)
# [15] = 75 mM test conc., 1st ROUND (lab colony)
# [16] = 75 mM test conc., 2nd ROUND (field colony)
substance,measurement,setting,value
fluoromethyl glucose [FMG],Average Feeding in mg per Live Termite (std. err.) days 1-8,[1],0.52 (0.03) mg per Live Termite
same,Average Feeding in mg per Live Termite (std. err.) days 9-16,[1],0.48 (0.10) mg per Live Termite
same,Average Feeding in mg per Live Termite (std. err.) days 17-24,[1],0.45 (0.04) mg per Live Termite
same,Normalized Avg. Totals,[1],0.98
same,Average Feeding in mg per Live Termite (std. err.) days 1-8,[2],0.20 (0.04) mg per Live Termite
same,Average Feeding in mg per Live Termite (std. err.) days 9-16,[2],0.33 (0.05) mg per Live Termite
same,Average Feeding in mg per Live Termite (std. err.) days 17-24,[2],0.48 (0.07) mg per Live Termite
same,Normalized Avg. Totals,[2],0.92
same,Average Feeding in mg per Live Termite (std. err.) days 1-8,[3],0.57 (0.08) mg per Live Termite
same,Average Feeding in mg per Live Termite (std. err.) days 9-16,[3],0.54 (0.07) mg per Live Termite
same,Average Feeding in mg per Live Termite (std. err.) days 17-24,[3],0.44 (0.07) mg per Live Termite
same,Normalized Avg. Totals,[3],0.96
same,Average Feeding in mg per Live Termite (std. err.) days 1-8,[4],0.34 (0.01) mg per Live Termite
same,Average Feeding in mg per Live Termite (std. err.) days 9-16,[4],0.34 (0.03) mg per Live Termite
same,Average Feeding in mg per Live Termite (std. err.) days 17-24,[4],0.47 (0.03) mg per Live Termite
same,Normalized Avg. Totals,[4],1.03
same,Average Feeding in mg per Live Termite (std. err.) days 1-8,[5],0.55 (0.02) mg per Live Termite
same,Average Feeding in mg per Live Termite (std. err.) days 9-16,[5],0.58 (0.03) mg per Live Termite
same,Average Feeding in mg per Live Termite (std. err.) days 17-24,[5],0.51 (0.03) mg per Live Termite
same,Normalized Avg. Totals,[5],0.92
same,Average Feeding in mg per Live Termite (std. err.) days 1-8,[6],0.36 (0.04) mg per Live Termite
same,Average Feeding in mg per Live Termite (std. err.) days 9-16,[6],0.38 (0.01) mg per Live Termite
same,Average Feeding in mg per Live Termite (std. err.) days 17-24,[6],0.39 (0.06) mg per Live Termite
same,Normalized Avg. Totals,[6],1.04
same,Average Feeding in mg per Live Termite (std. err.) days 1-8,[7],0.39 (0.06) mg per Live Termite
same,Average Feeding in mg per Live Termite (std. err.) days 9-16,[7],0.58 (0.07) mg per Live Termite
same,Average Feeding in mg per Live Termite (std. err.) days 17-24,[7],0.39 (0.07) mg per Live Termite
same,Normalized Avg. Totals,[7],0.72
same,Average Feeding in mg per Live Termite (std. err.) days 1-8,[8],0.29 (0.02) mg per Live Termite
same,Average Feeding in mg per Live Termite (std. err.) days 9-16,[8],0.29 (0.03) mg per Live Termite
same,Average Feeding in mg per Live Termite (std. err.) days 17-24,[8],0.43 (0.05) mg per Live Termite
same,Normalized Avg. Totals,[8],0.92
same,Average Feeding in mg per Live Termite (std. err.) days 1-8,[9],0.32 (0.07) mg per Live Termite
same,Average Feeding in mg per Live Termite (std. err.) days 9-16,[9],0.38 (0.09) mg per Live Termite
same,Average Feeding in mg per Live Termite (std. err.) days 17-24,[9],0.41 (0.05) mg per Live Termite
same,Normalized Avg. Totals,[9],0.93
same,Average Feeding in mg per Live Termite (std. err.) days 1-8,[10],0.17 (0.02) mg per Live Termite
same,Average Feeding in mg per Live Termite (std. err.) days 9-16,[10],0.25 (0.02) mg per Live Termite
same,Average Feeding in mg per Live Termite (std. err.) days 17-24,[10],0.45 (0.04) mg per Live Termite
same,Normalized Avg. Totals,[10],0.79
same,Average Feeding in mg per Live Termite (std. err.) days 1-8,[11],0.27 (0.04) mg per Live Termite
same,Average Feeding in mg per Live Termite (std. err.) days 9-16,[11],0.22 (0.05) mg per Live Termite
same,Average Feeding in mg per Live Termite (std. err.) days 17-24,[11],0.34 (0.02) mg per Live Termite
same,Normalized Avg. Totals,[11],0.83
same,Average Feeding in mg per Live Termite (std. err.) days 1-8,[12],0.25 (0.04) mg per Live Termite
same,Average Feeding in mg per Live Termite (std. err.) days 9-16,[12],0.31 (0.05) mg per Live Termite
same,Average Feeding in mg per Live Termite (std. err.) days 17-24,[12],0.40 (0.02) mg per Live Termite
same,Normalized Avg. Totals,[12],0.87
same,Average Feeding in mg per Live Termite (std. err.) days 1-8,[13],0.30 (0.01) mg per Live Termite
same,Average Feeding in mg per Live Termite (std. err.) days 9-16,[13],0.34 (0.01) mg per Live Termite
same,Average Feeding in mg per Live Termite (std. err.) days 17-24,[13],0.34 (0.02) mg per Live Termite
same,Normalized Avg. Totals,[13],0.99
same,Average Feeding in mg per Live Termite (std. err.) days 1-8,[14],0.25 (0.02) mg per Live Termite
same,Average Feeding in mg per Live Termite (std. err.) days 9-16,[14],0.28 (0.03) mg per Live Termite
same,Average Feeding in mg per Live Termite (std. err.) days 17-24,[14],0.29 (0.01) mg per Live Termite
same,Normalized Avg. Totals,[14],0.74
same,Average Feeding in mg per Live Termite (std. err.) days 1-8,[15],0.17 (0.03) mg per Live Termite
same,Average Feeding in mg per Live Termite (std. err.) days 9-16,[15],0.21 (0.02) mg per Live Termite
same,Average Feeding in mg per Live Termite (std. err.) days 17-24,[15],0.28 (0.02) mg per Live Termite
same,Normalized Avg. Totals,[15],0.67
same,Average Feeding in mg per Live Termite (std. err.) days 1-8,[16],0.21 (0.03) mg per Live Termite
same,Average Feeding in mg per Live Termite (std. err.) days 9-16,[16],0.19 (0.07) mg per Live Termite
same,Average Feeding in mg per Live Termite (std. err.) days 17-24,[16],0.27 (0.05) mg per Live Termite
same,Normalized Avg. Totals,[16],0.60
same,Effect on feeding (cumulative percent of untreated controls through 24 days),"across tested concentrations 0.1-75 mM, FIGS. 7A-7C, 8A-8B",did not stimulate consumption at any concentration; also recorded: little stimulatory effects at any concentration
same,"mortality, field colony termites","field colony, FIG. 13",approximately 30%
same,maximum mortality,"highest FMG concentration, FIG. 7D (2 colonies averaged)",approximately 20%
same,maximum mortality,"highest concentration tested, FIG. 10A",10%
same,"mortality, lab colony termites","lab colony, FIG. 13",2-3%

# Reference: patent publication US20080107619A1, “Carbohydrate based cellulase inhibitors as feeding stimulants in termites” (University of Florida Research Foundation, Inc., priority 2006, published 2008)
